The results in this text go back to publication PMC5488091, “Tellurite and Tellurate Reduction by the Aerobic Anoxygenic Phototroph Erythromonas ursincola, Strain KR99 Is Carried out by a Novel Membrane Associated Enzyme” (Microorganisms, 2017).

In test [1] the test system is T1, tellurite reductase (membrane associated tellurite/tellurate reductase).
T1 construct: native enzyme purified from Triton X-100 solubilised membranes of KR99; 117 kDa heterodimer (62 + 55 kDa, 1:1); MS nearest match GroEL of Blastomonas sp
Description: spectrophotometric tellurite reduction at […] nm. It counts as biochemical, Blastomonas ursincola. Particulars: electron donor; co-substrate tellurite; pH 7.0, 28 °C.

Test [2] has the same test system. It counts as biochemical, Blastomonas ursincola. As to conditions: co-substrate NADH (25 µL of 5 mM stock as printed), Tris HCl pH 7.0, 28 °C.
Test [3] addresses tellurite reductase 55 kDa subunit of Erythromonas ursincola, strain KR99 (Erythromonas ursincola, strain KR99 (endogenous)). Put plainly: SEC; endogenous enzyme co-purified from solubilised membranes; single band on 5% native PAGE; native mass by Superdex S-200 gel filtration in 20 mM Tris HCl pH 8.0; subunits by SDS-PAGE (12%) after boiling in 1% SDS with 2-mercaptoethanol. For orientation: Size exclusion chromatography separates by hydrodynamic size, large species first.

Broadly, the Km is the concentration of substrate that gives half-maximal velocity. A word on the stoichiometry N: it is the number of molecules, sites or subunits per partner or assembly.

Like-named read-outs stand apart in the source and are kept apart here.

As for `NC(=O)C1=CN([C@@H]2O[C@H](COP(=O)(O)OP(=O)(O)OC[C@H]3O[C@@H](n4cnc5c(N)ncnc54)[C@H](O)[C@@H]3O)[C@@H](O)[C@H]2O)C=CC1` [NADH], the Km in test [1] amounted to 81.5 µM. Take `O=[Te](=O)(O)O` [tellurate]: the Michaelis constant (Km) in test [2] (tellurate 0–5 mM) amounted to 1440 µM. Regarding “tellurite reductase 62 kDa subunit of Erythromonas ursincola, strain KR99 (natural protein)”, in test [3], the stoichiometry N turned out to be 1.

As to `O=[Te](O)O` [tellurite], in test [2] (tellurite 0–13 mM), the Michaelis constant (Km) came out at 3360 µM.
